Experimental data published in ChEMBL document CHEMBL5727760, “Pyrrolidine derivatives” (2020).

target: Cathepsin S (Homo sapiens, UniProt P25774); experiment: Enzyme Inhibition Assay: Enzyme activity is measured by observing the increase in fluorescence intensity caused by cleavage of a peptide substrate containing a fluorophore whose emission is quenched in the intact peptide.Assay buffer: 100 mM potassium phosphate pH 6.5, EDTA-Na 5 mM, Triton X-100 0.001%, DTT 5 mM.Enzymes (all at 1 nM): human and mouse Cathepsin S, Cat K, Cat B, Cat L.Substrate (20 μM): Z-Val-Val-Arg-AMC, except for Cat K which uses Z-Leu-Arg-AMC (both from Bachem).Z=Benzyloxycarbonyl.AMC=7-Amino-4-Methyl-Coumarin.DTT=dithiothreitol.Final volume: 100 μL.Excitation 360 nm, Emission 465 nm.Enzyme is added to the substance dilutions in 96-well microtitre plates and the reaction is started with substrate.
Sequence (P25774 whole entry): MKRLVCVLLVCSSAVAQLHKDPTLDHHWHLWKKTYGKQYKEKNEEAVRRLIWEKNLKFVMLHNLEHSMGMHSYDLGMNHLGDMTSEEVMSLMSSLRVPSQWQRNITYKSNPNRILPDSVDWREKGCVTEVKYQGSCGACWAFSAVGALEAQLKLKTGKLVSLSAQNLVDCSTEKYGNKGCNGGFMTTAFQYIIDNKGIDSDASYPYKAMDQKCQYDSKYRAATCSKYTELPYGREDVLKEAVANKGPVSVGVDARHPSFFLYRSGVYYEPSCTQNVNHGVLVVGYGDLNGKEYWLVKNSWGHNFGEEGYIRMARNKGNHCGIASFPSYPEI

Q: How did the IC50 turn out when N#CC1(NC(=O)[C@@H]2C[C@@H](S(=O)(=O)c3ccc(-n4cnnn4)cc3C(F)(F)F)CN2C(=O)C2(C(F)(F)F)CC2)CC1 was run?
A: 0.584 nM

Q: N#CC1(NC(=O)[C@@H]2C[C@@H](S(=O)(=O)c3ccc(-n4nccn4)cc3C(F)(F)F)CN2C(=O)C2(C(F)(F)F)CC2)CC1 was tested. Which IC50 did it give?
A: 0.506 nM

Q: How did the IC50 turn out when Cc1nnnn1-c1ccc(S(=O)(=O)[C@@H]2C[C@@H](C(=O)NC3(C#N)CC3)N(C(=O)C3(C(F)(F)F)CC3)C2)c(C(F)(F)F)c1 was run?
A: 0.349 nM

Q: N#CC1(NC(=O)[C@@H]2C[C@@H](S(=O)(=O)c3ccc(-n4cncn4)cc3C(F)(F)F)CN2C(=O)C2(C(F)(F)F)CC2)CC1 was tested. Which IC50 did it give?
A: 0.391 nM

Q: With N#CC1(NC(=O)[C@@H]2C[C@@H](S(=O)(=O)c3ccc(-n4cnc(Cl)n4)cc3C(F)(F)F)CN2C(=O)C2(C(F)(F)F)CC2)CC1 as the compound, how does the IC50 read?
A: 0.625 nM

Q: With N#CC1(NC(=O)[C@@H]2C[C@@H](S(=O)(=O)c3ccc(-n4cc(C(F)(F)F)cn4)cc3C(F)(F)F)CN2C(=O)C2(C(F)(F)F)CC2)CC1 as the compound, how does the IC50 read?
A: 0.752 nM
